# Results from patent publication US20240173425A1, “HUMAN CD33 ANTIBODIES AND GLUCOCORTICOID CONJUGATES” (Eli Lilly and Company, priority 2022, published 2024).
# Like-named read-outs stand apart in the source and are kept apart here. Marks after values point to notes of the source that are not given here.
# How the values were obtained:
# human PBMCs = assay: Proinflammatory cytokine modulation in LPS-stimulated PBMCs; assay type: cell-based; settings: PBMC, 200 nM, LPS 100 pg/mL, 24 hours
# Description: PBMCs were used to mimic in vivo conditions. […] The cells were then stimulated with LPS (Sigma cat. L2880) at 100 pg/mL in a 37° C. incubator for 24 hours. Culture supernatants were collected to measure the indicated cytokines (Proinflammatory Panel II (human) 4-Plex kits, MSD, K15053D-2).
# [1] = system: human plasmacytoid dendritic cells (pDCs); assay: Plasmacytoid dendritic cell differentiation assay; assay type: cell-based; settings: human PBMCs, IL-3 supplemented media, CpG stimulation
# Description: The differentiation of pDC was measured by flow cytometry. The functional effects of the pDC were measured by type I IFN (IFNα) production.
# [2] = system: oxazolone-induced skin inflammation; assay: Oxazolone-induced contact hypersensitivity in humanized mouse model (HuNOG-EXL); assay type: in vivo; settings: Challenge 3, 3 mg/kg SC 1 hour prior to sensitization and each challenge
# Description: (§1) Briefly, huNOG-EXL mice were engrafted at 6 weeks of age with human CD34+ hematopoietic stem cells isolated from human cord blood. 20-24 weeks after stem cell administration the mice were assessed for human CD45 engraftment (>25% in blood) and subjected to an oxazolone-induced contact hypersensitivity protocol. […] 24 hours (Day 1) post administration, the mice were anesthetized with 5% isoflurane, their abdomens shaved, and sensitized with 100 μL of 3% oxazolone in ethanol (applied to the shaved area). Mice were dosed again on Day 4, 11, and 16 as above, and challenged with 2% oxazolone in ethanol on both ears (10 μL/side/ear) 48 hours post each dose (Day 6—Challenge 1, Day 13—Challenge 2, and Day 18—Challenge 3). For the GC1 alone group, mice were dosed with 3 mg/kg SC 1 hour prior to sensitization and prior to each challenge. Upon final challenge, mice were euthanized, and ear tissue and the gastrocnemius was collected for analysis of target selective and non-target selective tissue expression of GC regulated genes.
# FKBP5 gene expression = assay: GC regulated gene expression in tissues of the contact hypersensitivity model; assay type: in vivo, mouse; settings: 3 mg/kg
# Description: as §1
smiles,measurement,setting,value
"Cc1ccc(OCc2cccc(N)c2)c(F)c1[C@H]1O[C@@H]2C[C@H]3[C@@H]4CCC5=CC(=O)C=C[C@]5(C)[C@H]4[C@@H](O)C[C@]3(C)[C@]2(C(=O)CO)O1 (single isomer, unassigned) [GC1]",inhibition at 0.2 µM,human PBMCs; read-out: % Inhibition of human IL-6 secretion at 200 nM,83.9 ± 2.81%
same,inhibition at 0.2 µM,human PBMCs; read-out: % Inhibition of human TNFa secretion at 200 nM,85.1 ± 3.28%
same,% Inhibition of human IFNα secretion,[1],97.18 ± 2.95%
same,% Inhibition of pDC cell differentiation,[1]; flow cytometry,95.50 ± 8.32%
same,"Δ Ear thickness, Mean",[2],0.018*^ mm
same,"Fold increase in FKBP5 gene expression compared to Isotype, Gastrocnemius, Mean",FKBP5 gene expression; non-targeted tissue (Gastrocnemius),3.958
same,"Fold increase in FKBP5 gene expression compared to Isotype, Ear, Mean",FKBP5 gene expression; targeted tissue (Ear),4.505
